One block for each compound: values may come before it. Active and inactive are the calls of the source. The calls are words filed in the database; no cut-off is given here. Non-standard residues stand in square brackets, D forms with d. Residues, ends and D or L forms follow the SMILES beside them. *: point of attachment. NMeW = CN[C@@H](Cc1c[nH]c2ccccc12)C(=O)O; Phe(4-F) = N[C@@H](Cc1ccc(F)cc1)C(=O)O; NMeY = CN[C@@H](Cc1ccc(O)cc1)C(=O)O; Acetyl(2-thienyl) = O=C(Cc1cccs1)*; NMeF = CN[C@@H](Cc1ccccc1)C(=O)O; hArg = N=C(N)NCCCC[C@H](N)C(=O)O; αMeF = C[C@](N)(Cc1ccccc1)C(=O)O; Tic = O=C(O)[C@@H]1Cc2ccccc2CN1; NMeN = CN[C@@H](CC(N)=O)C(=O)O; NMeL = CN[C@@H](CC(C)C)C(=O)O; Pip = O=C(O)[C@@H]1CCCCN1
Columns and labels:
[1] = biological target: T1, Neuromedin-U receptor 1 (Homo sapiens) (UniProt Q9HB89); test: Antagonist activity at human NMUR1 stably expressed in CHO cells by Fluo-4 AM dye based calcium mobilization assay; assay type: functional, cell-based; settings: dose 30-300 nM
T1 sequence (whole entry): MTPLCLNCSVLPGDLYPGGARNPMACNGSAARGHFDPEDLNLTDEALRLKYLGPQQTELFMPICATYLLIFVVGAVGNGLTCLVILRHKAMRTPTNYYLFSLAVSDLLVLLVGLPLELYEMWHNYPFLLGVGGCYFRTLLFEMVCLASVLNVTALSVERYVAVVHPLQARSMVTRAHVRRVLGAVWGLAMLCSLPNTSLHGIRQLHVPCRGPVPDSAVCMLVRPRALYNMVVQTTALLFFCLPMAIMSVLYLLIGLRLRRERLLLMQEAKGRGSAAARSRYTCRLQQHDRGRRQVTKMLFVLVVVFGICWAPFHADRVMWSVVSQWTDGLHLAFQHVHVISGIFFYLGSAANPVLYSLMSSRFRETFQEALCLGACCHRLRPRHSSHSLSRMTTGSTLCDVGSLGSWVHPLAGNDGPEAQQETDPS

Neuromedin-U receptor 2 [2] = biological target: T2, Neuromedin-U receptor 2 (Homo sapiens, UniProt Q9GZQ4); test: Binding affinity to human NMUR2 assessed as equilibrium binding constant; settings: filed as antagonist
Neuromedin-U receptor 1 = biological target: T3, Neuromedin-U receptor 1 (Homo sapiens, UniProt Q9HB89); test: Antagonist potency at human NMUR1 stably expressed in CHO cells by Fluo-4 AM dye based calcium mobilization assay; assay type: functional, cell-based; settings: read-out: pA2 (converted)
T3 sequence (Q9HB89 whole entry): T1 sequence (whole entry)

[3] = Stability in human plasma assessed drug recovery measured at 120 mins by RP-HPLC analysis; assay type: ADME, cell-free; settings: read-out: Drug recovery
Neuromedin-U receptor 2 [4] = biological target: T2, Neuromedin-U receptor 2; test: Antagonist potency at human NMUR2 stably expressed in CHO cells by Fluo-4 AM dye based calcium mobilization assay; assay type: functional, cell-based; settings: read-out: pA2 (converted)
[5] = biological target: T1, Neuromedin-U receptor 1 (Homo sapiens); test: Binding affinity to human NMUR1 assessed as equilibrium binding constant; settings: filed as antagonist
[6] = biological target: Neuromedin-U receptor 2 (Mus musculus) (UniProt Q8BZ39); test: Antagonist activity at mouse NMUR2 expressed in HEK293 cells by Fluo-4 AM dye based calcium mobilization assay; assay type: functional, cell-based
[7] = Drug degradation in rat serum by RP-HPLC analysis; assay type: ADME, cell-free
[8] = Drug metabolism in rat serum assessed as (2S)-5-guanidino-2-[[(2S)-1-[(2S)-5-guanidino-2-[[(2S)-2-[[(2S)-3-(1H-indol-3-yl)-2-[methyl-[2-(2-thienyl)acetyl]amino]propanoyl]amino]-2-methyl-3-phenyl-propanoyl]amino]pentanoyl]pyrrolidine-2-carbonyl]amino]pentanoic acid formation by RP-HPLC analysis; assay type: ADME, cell-free
[9] = biological target: T4, Neuromedin-U receptor 1 (Mus musculus) (UniProt O55040); test: Antagonist activity at mouse NMUR1 expressed in HEK293 cells by Fluo-4 AM dye based calcium mobilization assay; assay type: functional, cell-based
T4 sequence (whole entry): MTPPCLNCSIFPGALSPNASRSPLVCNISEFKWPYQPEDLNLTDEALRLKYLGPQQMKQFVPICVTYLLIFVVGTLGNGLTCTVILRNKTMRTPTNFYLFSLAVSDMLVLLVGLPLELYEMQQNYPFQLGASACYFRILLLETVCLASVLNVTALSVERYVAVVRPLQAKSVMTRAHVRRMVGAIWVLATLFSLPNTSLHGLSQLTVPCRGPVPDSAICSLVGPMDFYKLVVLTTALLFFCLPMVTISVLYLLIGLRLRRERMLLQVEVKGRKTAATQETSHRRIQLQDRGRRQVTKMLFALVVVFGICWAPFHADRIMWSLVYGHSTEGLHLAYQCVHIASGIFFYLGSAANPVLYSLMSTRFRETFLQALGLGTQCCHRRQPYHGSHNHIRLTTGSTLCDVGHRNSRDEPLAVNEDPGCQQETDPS

[10] = Drug degradation in human serum assessed as drug recovery incubated for 15 mins in presence of argatroban by RP-HPLC analysis; assay type: ADME, cell-free; settings: with argatroban, read-out: Drug recovery
[11] = Retention time in human serum measured at 40 min by RP-HPLC analysis; assay type: ADME, cell-free
Neuromedin-U receptor 2 [12] = biological target: T2, Neuromedin-U receptor 2; test: Antagonist activity at human NMUR2 stably expressed in CHO cells by Fluo-4 AM dye based calcium mobilization assay; assay type: functional, cell-based; settings: filed as antagonist, dose 30-300 nM
Homo sapiens = species on record: Homo sapiens; test: Selectivity ratio of human NMUR2 to human NMUR1
[13] = Drug degradation in human serum assessed as drug recovery incubated for 15 mins in presence of aprotinin by RP-HPLC analysis; assay type: ADME, cell-free; settings: 0.25 h
[14] = Drug degradation in human serum assessed as half life by RP-HPLC analysis; assay type: ADME, cell-free
[15] = biological target: T1, Neuromedin-U receptor 1 (Homo sapiens); test: Antagonist activity at human NMUR1 stably expressed in CHO cells at 100 to 1000 nM by Fluo-4 AM dye based calcium mobilization assay; assay type: functional, cell-based; settings: filed as antagonist, dose 100-1000 nM

T2 sequence (Q9GZQ4 whole entry): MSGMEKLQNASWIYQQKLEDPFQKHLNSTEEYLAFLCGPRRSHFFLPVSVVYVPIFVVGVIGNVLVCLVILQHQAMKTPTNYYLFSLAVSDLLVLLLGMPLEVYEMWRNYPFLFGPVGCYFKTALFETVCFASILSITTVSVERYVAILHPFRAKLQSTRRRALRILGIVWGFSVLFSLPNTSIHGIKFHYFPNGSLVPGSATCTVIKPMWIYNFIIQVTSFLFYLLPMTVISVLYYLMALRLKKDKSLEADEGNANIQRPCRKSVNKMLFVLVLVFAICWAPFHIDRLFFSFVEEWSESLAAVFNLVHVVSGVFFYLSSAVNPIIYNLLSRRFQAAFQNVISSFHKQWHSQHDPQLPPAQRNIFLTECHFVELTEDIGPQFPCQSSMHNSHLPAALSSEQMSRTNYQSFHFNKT
Sequence of Neuromedin-U receptor 2 (Mus musculus) (Q8BZ39 whole entry): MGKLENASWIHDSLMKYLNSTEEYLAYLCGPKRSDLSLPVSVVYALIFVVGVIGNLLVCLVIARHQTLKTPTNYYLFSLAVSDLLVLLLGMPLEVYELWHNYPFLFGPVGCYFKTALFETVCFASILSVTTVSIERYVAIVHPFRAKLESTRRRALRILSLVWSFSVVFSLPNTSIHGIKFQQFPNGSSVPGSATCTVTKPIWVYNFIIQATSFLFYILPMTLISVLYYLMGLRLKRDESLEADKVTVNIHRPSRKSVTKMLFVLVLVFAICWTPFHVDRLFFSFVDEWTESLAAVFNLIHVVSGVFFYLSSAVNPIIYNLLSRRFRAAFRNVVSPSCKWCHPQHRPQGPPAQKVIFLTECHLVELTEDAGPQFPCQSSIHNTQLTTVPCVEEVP

SMILES: CN(C(=O)Cc1cccs1)[C@@H](CC(N)=O)C(=O)N[C@@H](Cc1ccccc1)C(=O)N[C@@H](CCCNC(=N)N)C(=O)N1CCC[C@H]1C(=O)N[C@@H](CCCNC(=N)N)C(=O)N[C@@H](CC(N)=O)C(N)=O ({Acetyl(2-thienyl)}-[NMeN]FRPRN-NH2)
- Activity ([1]; filed as antagonist): Active

SMILES: CN(C(=O)Cc1cccs1)[C@@H](Cc1c[nH]c2ccccc12)C(=O)N[C@@H](Cc1ccccc1)C(=O)N[C@@H](CCCNC(=N)N)C(=O)N1CCC[C@H]1C(=O)N[C@@H](CCCCN)C(=O)N[C@@H](CC(N)=O)C(N)=O ({Acetyl(2-thienyl)}-[NMeW]FRPKN-NH2)
- Activity [1]: inactive

SMILES: CC(C)C[C@@H](C(=O)N[C@@H](Cc1ccccc1)C(=O)N[C@@H](CCCNC(=N)N)C(=O)N1CCC[C@H]1C(=O)N[C@@H](CCCNC(=N)N)C(=O)N[C@@H](CC(N)=O)C(N)=O)N(C)C(=O)Cc1cccs1 ({Acetyl(2-thienyl)}-[NMeL]FRPRN-NH2)
- Activity ([1]; filed as antagonist): Active

SMILES: CN(C(=O)Cc1cccs1)[C@@H](Cc1c[nH]c2ccccc12)C(=O)N[C@@H](Cc1c[nH]c2ccccc12)C(=O)N[C@@H](CCCNC(=N)N)C(=O)N1CCC[C@H]1C(=O)N[C@@H](CCCNC(=N)N)C(=O)N[C@@H](CC(N)=O)C(N)=O ({Acetyl(2-thienyl)}-[NMeW]WRPRN-NH2)
- Activity ([1]; filed as antagonist): Active

SMILES: CN(C(=O)Cc1cccs1)[C@@H](Cc1c[nH]c2ccccc12)C(=O)N[C@@H](Cc1ccccc1)C(=O)N[C@@H](CCCNC(=N)N)C(=O)N1CCC[C@H]1C(N)=O ({Acetyl(2-thienyl)}-[NMeW]FRP-NH2)
- Activity ([1]; filed as antagonist): Active
- Activity (Neuromedin-U receptor 2 [12]): Active

SMILES: CC(C)C[C@H](NC(=O)[C@H](Cc1c[nH]c2ccccc12)N(C)C(=O)Cc1cccs1)C(=O)N[C@@H](CCCNC(=N)N)C(=O)N1CCC[C@H]1C(=O)N[C@@H](CCCNC(=N)N)C(=O)N[C@@H](CC(N)=O)C(N)=O ({Acetyl(2-thienyl)}-[NMeW]LRPRN-NH2)
- Activity ([1]; filed as antagonist): Active

SMILES: CN(C(=O)Cc1cccs1)[C@@H](Cc1ccccc1)C(=O)N[C@@H](Cc1ccccc1)C(=O)N[C@@H](CCCNC(=N)N)C(=O)N1CCC[C@H]1C(=O)N[C@@H](CCCNC(=N)N)C(=O)N[C@@H](CC(N)=O)C(N)=O ({Acetyl(2-thienyl)}-[NMeF]FRPRN-NH2)
- Activity ([1]; filed as antagonist): Active

SMILES: CN(C(=O)Cc1cccs1)[C@@H](Cc1ccc(O)cc1)C(=O)N[C@@H](Cc1ccccc1)C(=O)N[C@@H](CCCNC(=N)N)C(=O)N1CCC[C@H]1C(=O)N[C@@H](CCCNC(=N)N)C(=O)N[C@@H](CC(N)=O)C(N)=O ({Acetyl(2-thienyl)}-[NMeY]FRPRN-NH2)
- Activity ([1]; filed as antagonist): Active

The next lines start with the values.

- Activity ([1]; filed as antagonist): Active
SMILES: CN(C(=O)Cc1cccs1)[C@@H](Cc1c[nH]c2ccccc12)C(=O)N[C@@H](Cc1ccccc1)C(=O)N[C@@H](CCCNC(=N)N)C(=O)N1CCCC[C@H]1C(=O)N[C@@H](CCCNC(=N)N)C(=O)N[C@@H](CC(N)=O)C(N)=O ({Acetyl(2-thienyl)}-[NMeW]FR[Pip]RN-NH2)

- Kb (Neuromedin-U receptor 2 [2]): 421 nM
- Kb (Neuromedin-U receptor 1): 44.7 nM
- remaining at 2 h [3]: 96.7%
- Kb (Neuromedin-U receptor 2 [4]): 417 nM
- Kb [5]: 45 nM
- Activity [6]: inactive
- Activity ([1]; filed as antagonist): Dose-Dependent Effect
- Stability [7]: Unstable
- Drug metabolism [8]: Metabolite_Detected
- Activity [9]: inactive
- remaining at 0.25 h [10]: 97%
- Retention_time [11]: 48.27 min
- Activity (Neuromedin-U receptor 2 [12]): Dose-Dependent Effect
- Selectivity ratio (Homo sapiens): 2.3
- Stability [13]: Stable
- half-life [14]: 5 min
SMILES: CN(C(=O)Cc1cccs1)[C@@H](Cc1c[nH]c2ccccc12)C(=O)N[C@@](C)(Cc1ccccc1)C(=O)N[C@@H](CCCNC(=N)N)C(=O)N1CCC[C@H]1C(=O)N[C@@H](CCCNC(=N)N)C(N)=O ({Acetyl(2-thienyl)}-[NMeW][αMeF]RPR-NH2)

- Activity ([1]; filed as antagonist): Active
SMILES: CN(C(=O)Cc1cccs1)[C@@H](Cc1c[nH]c2ccccc12)C(=O)N[C@@H](Cc1ccccc1)C(=O)N[C@@H](CCCNC(=N)N)C(=O)N1CCC[C@H]1C(=O)N[C@@H](CCCNC(=N)N)C(=O)N[C@@H](CCC(N)=O)C(N)=O ({Acetyl(2-thienyl)}-[NMeW]FRPRQ-NH2)

- Selectivity ratio (Homo sapiens): 2
SMILES: CN(C(=O)Cc1cccs1)[C@@H](Cc1c[nH]c2ccccc12)C(=O)N1Cc2ccccc2C[C@H]1C(=O)N[C@@H](CCCNC(=N)N)C(=O)N1CCC[C@H]1C(=O)N[C@@H](CCCNC(=N)N)C(N)=O ({Acetyl(2-thienyl)}-[NMeW][Tic]RPR-NH2)

- Activity ([1]; filed as antagonist): Active
- Activity (Neuromedin-U receptor 2 [12]): Active
SMILES: CN(C(=O)Cc1cccs1)[C@@H](Cc1c[nH]c2ccccc12)C(=O)N[C@@H](Cc1ccccc1)C(=O)N[C@@H](CCCNC(=N)N)C(=O)N1CCC[C@H]1C(=O)N[C@@H](CCCCNC(=N)N)C(N)=O ({Acetyl(2-thienyl)}-[NMeW]FRP[hArg]-NH2)

- Activity ([1]; filed as antagonist): Active
SMILES: CN(C(=O)Cc1cccs1)[C@@H](Cc1c[nH]c2ccccc12)C(=O)N[C@@H](Cc1ccccc1)C(=O)N[C@@H](CCCNC(=N)N)C(=O)N1CCC[C@H]1C(=O)N[C@@H](CCCNC(=N)N)C(=O)N[C@@H](CC(N)=O)C(=O)O ({Acetyl(2-thienyl)}-[NMeW]FRPRN-OH)

- Activity ([1]; filed as antagonist): Active
- Activity (Neuromedin-U receptor 2 [12]): Active
SMILES: CN(C(=O)Cc1cccs1)[C@@H](Cc1c[nH]c2ccccc12)C(=O)N[C@@H](Cc1ccccc1)C(=O)N[C@@H](CCCNC(=N)N)C(=O)N1CCC[C@H]1C(=O)N[C@@H](CCCNC(=N)N)C(=O)O ({Acetyl(2-thienyl)}-[NMeW]FRPR-OH)

- Activity ([1]; filed as antagonist): Active
SMILES: CN(C(=O)Cc1cccs1)[C@@H](Cc1c[nH]c2ccccc12)C(=O)N[C@@H](Cc1ccccc1)C(=O)N[C@@H](CCCNC(=N)N)C(=O)N1CCC[C@H]1C(=O)N[C@@H](CCCNC(=N)N)C(=O)N[C@@H](CC(N)=O)C(N)=O ({Acetyl(2-thienyl)}-[NMeW]FRPRN-NH2)

- Activity ([1]; filed as antagonist): Active
SMILES: CN(C(=O)Cc1cccs1)[C@@H](Cc1c[nH]c2ccccc12)C(=O)N[C@@H](Cc1ccccc1)C(=O)N[C@@H](CCCNC(=N)N)C(=O)N1CCC[C@H]1C(=O)N[C@@H](CCCNC(=N)N)C(=O)N[C@@H](CC(=O)O)C(N)=O ({Acetyl(2-thienyl)}-[NMeW]FRPRD-NH2)

- Kb (Neuromedin-U receptor 2 [2]): 41 nM
- Kb (Neuromedin-U receptor 1): 6.46 nM
- Activity [15]: Active
- Kb (Neuromedin-U receptor 2 [4]): 41.7 nM
- Kb [5]: 6.4 nM
- Activity [6]: inactive
- Activity ([1]; filed as antagonist): Active
- Activity [9]: inactive
- Activity (Neuromedin-U receptor 2 [12]): Active
- half-life [14]: 1.9 min
SMILES: CN(C(=O)Cc1cccs1)[C@@H](Cc1c[nH]c2ccccc12)C(=O)N[C@@H](Cc1ccc(F)cc1)C(=O)N[C@@H](CCCNC(=N)N)C(=O)N1CCC[C@H]1C(=O)N[C@@H](CCCNC(=N)N)C(N)=O ({Acetyl(2-thienyl)}-[NMeW][Phe(4-F)]RPR-NH2)

- Activity ([1]; filed as antagonist): Active
- Selectivity ratio (Homo sapiens): 2.1
SMILES: CN(C(=O)Cc1cccs1)[C@@H](Cc1c[nH]c2ccccc12)C(=O)N[C@@H](Cc1ccccc1)C(=O)N[C@@H](CCCNC(=N)N)C(=O)N1CCC[C@H]1C(=O)N[C@@H](CCCNC(=N)N)C(N)=O ({Acetyl(2-thienyl)}-[NMeW]FRPR-NH2)
